The values below come from patent US7943621B2, “Salts of piperazine compounds as D3/D2 antagonists” (Richter Gedeon Nyrt., priority 2008, dated 2011).

The nature of series [1]: stability when stored in the solid state (long term and accelerated). It is filed as physicochemical.
A short description of series [2]: thermal stability by thermogravimetric (TG) and DSC analysis. It is filed as physicochemical. The note with it: solvent-free anhydrous form, 10° C./min, N2. The method, then:
The characterization of trans 4-{2-[4-(2,3-dichlorophenyl)-piperazine-1-yl]-ethyl}-N,N-dimethylcarbamoyl-cyclohexylamine monohydrochloride was carried out by thermogravimetric (TG), differential scanning […] (DSC), infrared spectroscopic (FT-IR), Raman spectroscopic (FT-Raman) and powder X-ray diffraction (PXRD) solid phase analytical methods.
(DSC measures the heat that a sample takes up or gives off during a temperature scan.)

Structures can show the parent of a compound that is named as a salt.

On to `CN(C)C(=O)NC1CCC(CCN2CCN(c3cccc(Cl)c3Cl)CC2)CC1` (stereo not drawn) [monohydrochloride, Trans 4-{2-[4-(2,3-dichlorophenyl)-piperazine-1-yl]-ethyl}-N,N-dimethylcarbamoyl-cyclohexylamine monohydrochloride], for which, in series [1] (25±2° C./60±5% RH), the long term stability is on record as 48 months. For the same molecule, the accelerated stability in series [1] (40±2° C./75±5% RH) amounted to 6 months. In series [2], the “satisfactory thermal stability up to” value was “about 200 °C”.
